Series [1] has as its system Cortex. Nature of the series: Drug uptake in conscious Sprague-Dawley rat cortex at < 10 nmol/kg, tail-vein injections at 2 mins. It counts as ADME, tissue-based. As to conditions: in vivo, iv.
Series [2] deals with Striatum. Put plainly: Drug uptake in conscious Sprague-Dawley rat striatum at < 10 nmol/kg, tail-vein injections at 2 mins. The format is ADME, tissue-based. As to conditions: in vivo, iv.
In series [3] the test system is Cerebellum. Nature of the series: Drug uptake in conscious Sprague-Dawley rat cerebellum at < 10 nmol/kg, tail-vein injections at 15 mins in presence of 2 mg/kg, ip L-deprenyl inhibitor for 1 hr. Details: dose 2 mg/kg, route intraperitoneal. It counts as ADME, organism-based. As to conditions: in vivo, 0.25 h.
Series [4] concerns Cortex. Put plainly: Drug uptake in conscious Sprague-Dawley rat cortex at < 10 nmol/kg, tail-vein injections at 15 mins. As to conditions: in vivo, iv, 0.25 h. The format is ADME, tissue-based.
In series [5] the test system is Cerebellum. Nature of the series: Drug uptake in conscious Sprague-Dawley rat cerebellum at < 10 nmol/kg, tail-vein injections at 40 mins. The format is ADME, tissue-based. Particulars: in vivo, iv.
The subject of series [6] is Brain. Put plainly: Drug uptake in conscious Sprague-Dawley rat brain region at < 10 nmol/kg, tail-vein injections at 2 mins. It counts as ADME, tissue-based. As to conditions: in vivo, iv.
The test system of series [7] is Striatum. Put plainly: Drug uptake in conscious Sprague-Dawley rat striatum at < 10 nmol/kg, tail-vein injections at 40 mins in presence of 2 mg/kg, ip L-deprenyl inhibitor for 1 hr. The format is ADME, organism-based. Details: dose 2 mg/kg, route intraperitoneal. As to conditions: in vivo.
The nature of series [8]: Plasma concentration in conscious Sprague-Dawley rat plasma assessed as radiotracer at < 10 nmol/kg, tail-vein injections at 2 mins. It counts as ADME. Particulars: iv, read-out: Stability.
The test system of series [9] is Striatum. Nature of the series: Drug uptake in conscious Sprague-Dawley rat striatum at < 10 nmol/kg, tail-vein injections at 40 mins. It counts as ADME, tissue-based. As to conditions: in vivo, iv.
Series [10] relates to Cortex. Put plainly: Drug uptake in conscious Sprague-Dawley rat cortex at < 10 nmol/kg, tail-vein injections at 15 mins in presence of 2 mg/kg, ip L-deprenyl inhibitor for 1 hr. It counts as ADME, organism-based. Details: dose 2 mg/kg, route intraperitoneal. Particulars: in vivo, 0.25 h.
For series [11], the system named is Brain. Nature of the series: Drug uptake in conscious Sprague-Dawley rat brain region at < 10 nmol/kg, tail-vein injections at 40 mins. The format is ADME, tissue-based. Particulars: in vivo, iv.
Series [12] concerns Brain. Put plainly: Drug uptake in conscious Sprague-Dawley rat brain region at < 10 nmol/kg, tail-vein injections at 40 mins in presence of 2 mg/kg, ip L-deprenyl inhibitor for 1 hr. The format is ADME, organism-based. Details: dose 2 mg/kg, route intraperitoneal. As to conditions: in vivo.
For series [13], the system named is Cerebellum. Nature of the series: Drug uptake in conscious Sprague-Dawley rat cerebellum at < 10 nmol/kg, tail-vein injections at 15 mins. The format is ADME, tissue-based. As to conditions: in vivo, iv, 0.25 h.
Series [14] deals with Striatum. Put plainly: Drug uptake in conscious Sprague-Dawley rat striatum at < 10 nmol/kg, tail-vein injections at 15 mins. The format is ADME, tissue-based. Particulars: in vivo, iv, 0.25 h.
Series [15] relates to Bone. Nature of the series: Drug metabolism in conscious Sprague-Dawley rat bone assessed as parent drug level at < 10 nmol/kg, tail-vein injections at 2 mins. Particulars: in vivo, iv. It counts as ADME, tissue-based, Bone element.
Series [16] relates to Cortex. Nature of the series: Drug uptake in conscious Sprague-Dawley rat cortex at < 10 nmol/kg, tail-vein injections at 40 mins. The format is ADME, tissue-based. As to conditions: in vivo, iv.
The subject of series [17] is Striatum. Put plainly: Drug uptake in conscious Sprague-Dawley rat striatum at < 10 nmol/kg, tail-vein injections at 15 mins in presence of 2 mg/kg, ip L-deprenyl inhibitor for 1 hr. Details: dose 2 mg/kg, route intraperitoneal. Particulars: in vivo, 0.25 h. It counts as ADME, organism-based.
Series [18] relates to Bone. Nature of the series: Drug metabolism in conscious Sprague-Dawley rat bone assessed as parent drug level at < 10 nmol/kg, tail-vein injections at 40 mins. The format is ADME, tissue-based, Bone element. Particulars: in vivo, iv.
In series [19] the test system is Brain. Put plainly: Drug uptake in conscious Sprague-Dawley rat brain region at < 10 nmol/kg, tail-vein injections at 15 mins in presence of 2 mg/kg, ip L-deprenyl inhibitor for 1 hr. The format is ADME, organism-based. Details: dose 2 mg/kg, route intraperitoneal. As to conditions: in vivo, 0.25 h.
For series [20], the system named is Brain. Put plainly: Drug uptake in conscious Sprague-Dawley rat brain region at < 10 nmol/kg, tail-vein injections at 15 mins. The format is ADME, tissue-based. As to conditions: in vivo, iv, 0.25 h.
A short description of series [21]: Plasma concentration in conscious Sprague-Dawley rat plasma assessed as radiotracer at < 10 nmol/kg, tail-vein injections at 40 mins. It counts as ADME, cell-free. Particulars: iv, read-out: Stability.
In series [22] the test system is Cerebellum. Put plainly: Drug uptake in conscious Sprague-Dawley rat cerebellum at < 10 nmol/kg, tail-vein injections at 2 mins. It counts as ADME, tissue-based. Particulars: in vivo, iv.
The test system of series [23] is Cerebellum. Nature of the series: Drug uptake in conscious Sprague-Dawley rat cerebellum at < 10 nmol/kg, tail-vein injections at 40 mins in presence of 2 mg/kg, ip L-deprenyl inhibitor for 1 hr. It counts as ADME, organism-based. Details: dose 2 mg/kg, route intraperitoneal. Particulars: in vivo.
For series [24], the system named is Cortex. Put plainly: Drug uptake in conscious Sprague-Dawley rat cortex at < 10 nmol/kg, tail-vein injections at 40 mins in presence of 2 mg/kg, ip L-deprenyl inhibitor for 1 hr. The format is ADME, organism-based. Details: dose 2 mg/kg, route intraperitoneal. As to conditions: in vivo.
Series [25] concerns the target T1, Amine oxidase [flavin-containing] B (Homo sapiens, UniProt P27338).
T1 sequence (P27338 whole entry): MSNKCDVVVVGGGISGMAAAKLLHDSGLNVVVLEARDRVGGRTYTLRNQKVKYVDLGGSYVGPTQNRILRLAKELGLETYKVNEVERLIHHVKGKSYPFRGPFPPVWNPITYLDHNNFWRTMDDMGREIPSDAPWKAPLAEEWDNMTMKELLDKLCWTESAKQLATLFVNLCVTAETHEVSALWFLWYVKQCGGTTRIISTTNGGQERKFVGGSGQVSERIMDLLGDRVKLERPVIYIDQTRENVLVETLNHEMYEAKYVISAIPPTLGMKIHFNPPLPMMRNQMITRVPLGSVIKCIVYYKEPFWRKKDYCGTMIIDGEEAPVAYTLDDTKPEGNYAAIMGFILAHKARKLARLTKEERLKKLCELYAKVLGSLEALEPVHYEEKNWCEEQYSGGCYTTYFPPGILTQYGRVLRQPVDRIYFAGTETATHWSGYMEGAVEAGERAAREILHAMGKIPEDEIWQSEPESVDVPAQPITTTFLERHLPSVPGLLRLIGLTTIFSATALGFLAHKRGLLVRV
Nature of the series: Inhibition of human recombinant MAO-B by luminescence analysis.

The species named for series [26] is Homo sapiens. Put plainly: Selectivity index, ratio of IC50 for human recombinant MAO-B to IC50 for human recombinant MAO-A.
Series [27] is described as follows: n-Octanol-phosphate buffered saline distribution coefficient, log D of the compound at pH 7.4 by shake flask method. The format is physicochemical.

The results in this text go back to ChEMBL document CHEMBL3352567, “Radiosynthesis and ex vivo evaluation of [(18)F]-(S)-3-(6-(3-fluoropropoxy)benzo[d]isoxazol-3-yl)-5-(methoxymethyl)oxazolidin-2-one for imaging MAO-B with PET” (Bioorg Med Chem Lett, 2015).

In general, IC50 refers to the point on the concentration scale where inhibition reaches its midpoint. By logD is commonly meant lipophilicity at a set pH, counting ionised and neutral species. A higher logD goes with higher lipophilicity.

For the molecule `COC[C@@H]1CN(c2noc3cc(OCCC[18F])ccc23)C(=O)O1`, the SUV in series [1] is listed as 1.7; in series [2], 1.7; in series [3] it was 0.5; in series [4] it was 0.51; in series [5], 0.19; in series [6] it was 1.7. For the same molecule, the SUV in series [7] came out at 0.2; in series [9], 0.19; in series [10], 0.5; in series [11], 0.19; in series [12] it was 0.2; in series [13] it was 0.51. The SUV in [14] was determined as 0.51; in series [15] it was 0.45; in series [16], 0.19; in series [17], 0.5; in [18], 3.1; in [19] it was 0.5. The SUV worked out at 0.51 in series [20], 1.7 in series [22], 0.2 in series [23] and 0.2 in [24]. The remaining at 2 min in series [8] turned out to be 90%. Also, the remaining at 40 min in series [21] is 33%.
For `COC[C@@H]1CN(c2noc3cc(OCCCCCF)ccc23)C(=O)O1`, in [25], the concentration for half-maximal inhibition (IC50) amounted to 110 nM. Further, in series [26], the Ratio IC50 was found to be 7730.
As to `COC[C@@H]1CN(c2noc3cc(OCCCF)ccc23)C(=O)O1`, the logD in [27] was 2.6. Further, the IC50 in series [25] was determined as 330 nM. Besides, the Ratio IC50 in series [26] turned out to be 6.
Take `COC[C@@H]1CN(c2noc3cc(OCCCCF)ccc23)C(=O)O1`: the 50% inhibitory concentration (IC50) in series [25] was found to be 120 nM. In addition, the Ratio IC50 in [26] is 54.
`COC[C@@H]1CN(c2noc3cc(OCCCC(F)(F)F)ccc23)C(=O)O1` displayed a logD in [27] of 3.34. The IC50 in series [25] stood at 47 nM. For the same molecule, the Ratio IC50 in series [26] worked out at 4680.
